By IC50 is commonly meant the concentration that inhibits the measured activity by half.

Our source for the IC50 values is patent publication US12692254B2, “Benzimidazole inhibitors of PAD enzymes” (BRISTOL-MYERS SQUIBB COMPANY, priority 2018, dated 2026).

The target of this assay is human PAD4 (hPAD4) (Homo sapiens, UniProt Q9UM07). As to the kind of experiment: RFMS human PAD4 functional assay (rapid-fire mass spectrum). Type of assay: biochemical. Particulars: 5 nM hPAD4 enzyme, 250 μM BAEE, 50 μM Calcium; 30 min preincubation, 90 min reaction at 37° C. The procedure, abridged:
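PAD4 (10 nM) preincubated 30 min with compound (top final 50 μM), then BAEE substrate added in pH 7.5 HEPES buffer with DTT, 50 μM calcium, TPEN; 90 min at 37° C. After TCA quench, citrulline derivatized with phenyl glyoxal (4 mM final, 30 min, 37° C) and quantified by RapidFire MS against internal standard.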

Chain of human PAD4 (hPAD4) (Q9UM07 whole entry): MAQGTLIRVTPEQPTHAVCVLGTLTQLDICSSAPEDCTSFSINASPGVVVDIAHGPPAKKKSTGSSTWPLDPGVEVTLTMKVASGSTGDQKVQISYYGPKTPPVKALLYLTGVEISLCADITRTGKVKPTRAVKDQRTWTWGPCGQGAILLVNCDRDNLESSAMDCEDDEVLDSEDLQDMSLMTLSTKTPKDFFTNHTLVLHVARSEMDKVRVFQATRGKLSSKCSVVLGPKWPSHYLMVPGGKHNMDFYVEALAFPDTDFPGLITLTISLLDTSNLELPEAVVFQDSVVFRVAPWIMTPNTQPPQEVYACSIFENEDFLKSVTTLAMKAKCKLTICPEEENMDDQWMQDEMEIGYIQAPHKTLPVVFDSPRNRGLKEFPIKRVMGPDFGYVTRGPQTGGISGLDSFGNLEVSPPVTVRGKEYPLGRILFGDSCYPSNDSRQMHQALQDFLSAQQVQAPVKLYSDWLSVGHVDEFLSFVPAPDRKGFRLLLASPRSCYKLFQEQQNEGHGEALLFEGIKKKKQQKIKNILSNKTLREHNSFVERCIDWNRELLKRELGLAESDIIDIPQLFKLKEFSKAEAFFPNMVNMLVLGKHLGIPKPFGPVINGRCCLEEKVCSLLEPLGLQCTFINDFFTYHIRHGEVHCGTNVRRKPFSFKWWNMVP

Turning to `COc1cc(C(=O)N2C[C@H]3CC[C@@H]2[C@@H]3N)cc2nc(-c3cc4cccnc4n3CC3CC3)n(CC3CN(C(=O)c4ccnc(Cl)n4)C3)c12` [Example 126, (1R,4R,7R)-2-(1-{[1-(2-chloropyrimidine-4-carbonyl)azetidin-3-yl]methyl}-2-[1-(cyclopropylmethyl)-1H-pyrrolo[2,3-b]pyridin-2-yl]-7-methoxy-1H-1,3-benzodiazole-5-carbonyl)-2-azabicyclo[2.2.1]heptan-7-amine], the IC50 was 108 nM.
For `COc1cc(C(=O)N2C[C@H]3CC[C@@H]2[C@@H]3N)cc2nc(-c3cc4ccccc4n3CC3CC3)n(CC3CN(C(=O)c4cnn(C)c4)C3)c12` [Example 155, (1R,4R,7R)-2-{2-[1-(cyclopropylmethyl)-1H-indol-2-yl]-7-methoxy-1-{[1-(1-methyl-1H-pyrazole-4-carbonyl)azetidin-3-yl]methyl}-1H-1,3-benzodiazole-5-carbonyl}-2-azabicyclo[2.2.1]heptan-7-amine], the IC50 is 22 nM.
Then `COc1cc(C(=O)N2CC3CCC2[C@@H]3N)cc2nc(-c3cc4ccccc4n3CC3CC3)n(CC3CN(C(=O)c4cccs4)C3)c12` (stereo partly drawn) [Example 457, (7R)-2-{2-[1-(cyclopropylmethyl)-1H-indol-2-yl]-7-methoxy-1-{[1-(thiophene-2-carbonyl)azetidin-3-yl]methyl}-1H-1,3-benzodiazole-5-carbonyl}-2-azabicyclo[2.2.1]heptan-7-amine], with 63 nM.
For the molecule `Cn1cc(Cn2c(-c3cc4ccccc4n3CC3CC3)nc3cc(C(=O)N4C[C@H](N)C[C@@H](F)C4)cc(Cl)c32)cn1` [Example 517, (3R,5R)-1-{7-chloro-2-[1-(cyclopropylmethyl)-1H-indol-2-yl]-1-[(1-methyl-1H-pyrazol-4-yl)methyl]-1H-1,3-benzodiazole-5-carbonyl}-5-fluoropiperidin-3-amine], the IC50 is 590 nM.
In the case of `COc1cc(C(=O)N2CC3CCC2[C@@H]3N)cc2nc(-c3cc4ccccc4n3CC3CC3)n(CC3CN(C(=O)c4ccsc4)C3)c12` (stereo partly drawn) [Example 416, (7R)-2-{2-[1-(cyclopropylmethyl)-1H-indol-2-yl]-7-methoxy-1-{[1-(thiophene-3-carbonyl)azetidin-3-yl]methyl}-1H-1,3-benzodiazole-5-carbonyl}-2-azabicyclo[2.2.1]heptan-7-amine] it was 10 nM.
In the case of `COc1cc(C(=O)N2C[C@H]3CC[C@@H]2[C@@H]3N)cc2nc(-c3cc4ccccc4n3CC3CC3)n(CC3CN(C(=O)c4cccc(Cl)c4)C3)c12` [Example 154, (1R,4R,7R)-2-(1-{[1-(3-chlorobenzoyl)azetidin-3-yl]methyl}-2-[1-(cyclopropylmethyl)-1H-indol-2-yl]-7-methoxy-1H-1,3-benzodiazole-5-carbonyl)-2-azabicyclo[2.2.1]heptan-7-amine] it was 21 nM.
In the case of `COc1cc(C(=O)N2C[C@H](N)C[C@@H](F)C2)cc2nc(-c3cc4ccccc4n3CC3CC3)n(CC3CC(=O)N(C)C3)c12` (mixture of isomers) [Example 281, 4-({5-[(3R,5R)-3-amino-5-fluoropiperidine-1-carbonyl]-2-[1-(cyclopropylmethyl)-1H-indol-2-yl]-7-methoxy-1H-1,3-benzodiazol-1-yl}methyl)-1-methylpyrrolidin-2-one] it was 649 nM; in that of `N[C@@H]1[C@@H]2CC[C@H]1N(C(=O)c1cc(Cl)c3c(c1)nc(-c1cc4cccnc4n1CC1CC1)n3CC1CN(C(=O)c3ccncc3)C1)C2` [Example 131, (1R,4R,7R)-2-{7-chloro-2-[1-(cyclopropylmethyl)-1H-pyrrolo[2,3-b]pyridin-2-yl]-1-{[1-(pyridine-4-carbonyl)azetidin-3-yl]methyl}-1H-1,3-benzodiazole-5-carbonyl}-2-azabicyclo[2.2.1]heptan-7-amine], 138 nM.
Regarding `COc1cc(C(=O)N2CC3CCC2[C@@H]3N)cc2nc(-c3cc4cccnc4n3CC3CC3)n(CC3CCN(c4ncccn4)CC3)c12` (stereo partly drawn) [Example 220, (1R,4R,7R)-2-{2-[1-(cyclopropylmethyl)-1H-pyrrolo[2,3-b]pyridin-2-yl]-7-methoxy-1-{[1-(pyrimidin-2-yl)piperidin-4-yl]methyl)-1H-1,3-benzodiazole-5-carbonyl}-2-azabicyc1o[2.2.1]heptan-7-amine], the IC50 came to 72 nM.
For the molecule `COc1cc(C(=O)N2C[C@H]3CC[C@@H]2[C@@H]3N)cc2nc(-c3cc4ccccc4n3CC3CC3)n(CC3CN(C(=O)c4nn[nH]n4)C3)c12` [Example 173, (1R,4R,7R)-2-{2-[1-(cyclopropylmethyl)-1H-indol-2-yl]-7-methoxy-1-{[1-(2H-1,2,3,4-tetrazole-5-carbonyl)azetidin-3-yl]methyl}-1H-1,3-benzodiazole-5-carbonyl}-2-azabicyclo[2.2.1]heptan-7-amine], the IC50 was determined as 50 nM.
Then `COc1cc(C(=O)N2C[C@H](N)C[C@@H](F)C2)cc2nc(-c3cc4cccnc4n3CC3CC3)n(Cc3cnn(-c4cccc(Cl)n4)c3)c12` [Example 389, (3R,5R)-1-(1-{[1-(6-chloropyridin-2-yl)-1H-pyrazol-4-yl]methyl}-2-[1-(cyclopropylmethyl)-1H-pyrrolo[2,3-b]pyridin-2-yl]-7-methoxy-1H-1,3-benzodiazole-5-carbonyl)-5-fluoropiperidin-3-amine], with 43 nM; and `N#Cc1ccc(C(=O)N2CC(Cn3c(-c4cc5ccccc5n4CC4CC4)nc4cc(C(=O)N5C[C@H]6CC[C@@H]5[C@@H]6N)ccc43)C2)cc1` [Example 165, 4-[3-({5-[(1R,4R,7R)-7-amino-2-azabicyclo[2.2.1]heptane-2-carbonyl]-2-[1-(cyclopropylmethyl)-1H-indol-2-yl]-1H-1,3-benzodiazol-1-yl}methyl)azetidine-1-carbonyl]benzonitrile], with 30 nM.
In the case of `COc1cc(C(=O)N2C[C@H](N)CC[C@@H]2C)cc2nc(-c3cc4cccnc4n3CC3CC3)n(CC3CN(C(=O)c4ccccc4)C3)c12` [Example 470, (3R,6S)-1-{1-[(1-benozylazetidin-3-yl)methyl]-2-[1-(cyclopropylmethyl)-1H-pyrrolo[2,3-b]pyridin-2-yl]-7-methoxy-1H-1,3-benzodiazole-5-carbonyl}-6-methylpiperidin-3-amine] it was 177 nM.
Then `CCCC(=O)N1CC(Cn2c(-c3cc4cccnc4n3CC3CC3)nc3cc(C(=O)N4C[C@H]5CC[C@@H]4[C@@H]5N)cc(OC)c32)C1` [Example 118, 1-[3-({5-[(1R,4R,7R)-7-amino-2-azabicyclo[2.2.1]heptane-2-carbonyl]-2-[1-(cyclopropylmethyl)-1H-pyrrolo[2,3-b]pyridin-2-yl]-7-methoxy-1H-1,3-benzodiazol-1-yl}methyl)azetidin-1-yl]butan-1-one], with 68 nM; and `COc1cc(C(=O)N2CC3CCC2[C@@H]3N)cc2nc(-c3cc4cccnc4n3CC3CC3)n(C3CCN(c4ccnc(C)n4)CC3)c12` (stereo partly drawn) [Example 238, (1R.,4R,7R)-2-{2-[1-(cyclopropylmethyl)-1H-pyrrolo[2,3-b]pyridin-2-yl]-7-methoxy-1-[1-(2-methylpyrimidin-4-yl)piperidin-4-yl]-1H-1,3-benzodiazole-5-carbonyl}-2-azabicyclo[2.2.1]heptan-7-amine], with 922 nM; and `COc1cc(C(=O)N2C[C@H]3CC[C@@H]2[C@@H]3N)cc2nc(-c3cc4ccccc4n3CC3CC3)n(CC3CN(C(=O)c4ccc(F)cc4)C3)c12` [Example 161, (1R,4R,7R)-2-{2-[1-(cyclopropylmethyl)-1H-indol-2-yl]-1-{[1-(4-fluorobenzoyl)azetidin-3-yl]methyl}-7-methoxy-1H-1,3-benzodiazole-5-carbonyl}-2-azabicyclo[2.2.1]heptan-7-amine], with 25 nM.
On to `COc1cc(C(=O)N2CC3CCC2[C@@H]3N)cc2nc(-c3cc4ccccc4n3CC3CC3)n(CC3CN(C(=O)c4cncs4)C3)c12` (stereo partly drawn) [Example 448, (7R)-2-{2-[1-(cyclopropylmethyl)-1H-indol-2-yl]-7-methoxy-1-{[1-(1,3-thiazole-5-carbonyl)azetidin-3-yl]methyl}-1H-1,3-benzodiazole-5-carbonyl}-2-azabicyclo[2.2.1]heptan-7-amine], for which the IC50 amounted to 44 nM.
With `COc1cc(C(=O)N2CC3CCC2[C@@H]3N)cc2nc(-c3cc4ccccc4n3CC3CC3)n(Cc3cnn(-c4cncnc4)c3)c12` (stereo partly drawn) [Example 379, (7R)-2-{2-[1-(cyclopropylmethyl)-1H-indol-2-yl]-7-methoxy-1-{[1-(pyrimidin-5-yl)-1H-pyrazol-4-yl]methyl}-1H-1,3-benzodiazole-5-carbonyl}-2-azabicyclo[2.2.1]heptan-7-amine], the IC50 stood at 37 nM.
As to `COc1cc(C(=O)N2CC3CCC2[C@@H]3N)cc2nc(-c3cc4ccccc4n3CC3CC3)n(CC3CC(=O)N(C)C3)c12` (stereo partly drawn) [Example 473, 4-({5-[(7R)-7-amino-2-azabicyclo[2.2.1]heptane-2-carbonyl]-2-[1-(cyclopropylmethyl)-1H-indol-2-yl]-7-methoxy-1H-1,3-benzodiazol-1-yl}methyl)-1-methylpyrrolidin-2-one], the IC50 was 129 nM.
On to `COc1ccc2cc(-c3nc4cc(C(=O)N5C[C@H]6CC[C@@H]5[C@@H]6N)cc(OC)c4n3CC3CN(c4ccnc(C#N)n4)C3)n(CC3CC3)c2n1` [Example 2, 4-(3-((5-((1R,4R,7R)-7-amino-2-azabicyclo[2.2.1]heptane-2-carbonyl)-2-(1-(cyclopropylmethyl)-6-methoxy-1H-pyrrolo[2,3-b]pyridin-2-yl)-7-methoxy-1H-benzo[d]imidazol-1-yl)methyl)azetidin-1-yl)pyrimidine-2-carbonitrile], for which the IC50 worked out at 49 nM.
Then `N[C@@H]1C2CCC1N(C(=O)c1cc(F)c3c(c1)nc(-c1cc4cccnc4n1CC1CC1)n3CC1CN(C(=O)c3ccncc3)C1)C2` (stereo partly drawn) [Example 466, (7R)-2-{2-[1-(cyclopropylmethyl)-1H-pyrrolo[2,3-b]pyridin-2-yl]-7-fluoro-1-{[1-(pyridine-4-carbonyl)azetidin-3-yl]methyl}-1H-1,3-benzodiazole-5-carbonyl}-2-azabicyclo[2.2.1]heptan-7-amine], with 84 nM.
